Results as given in ChEMBL document CHEMBL3885881, “DrugMatrix”.

Species on record: Rattus norvegicus
Test: DrugMatrix - Regimen: Daily Repeat
Format: toxicity, organism-based, Sprague-Dawley
Set-up: regimen Daily Repeat, gender Male, age 6-8 weeks
Conditions: in vivo, po, route oral GAVAGE, vehicle 100 % WATER; for ABSOLUTE BASOPHIL / ABSOLUTE EOSINOPHIL / ABSOLUTE LYMPHOCYTE / ABSOLUTE MONOCYTE / ABSOLUTE SEGMENTED NEUTROPHIL / BASOPHIL / EOSINOPHIL / ERYTHROCYTE COUNT / HEMATOCRIT / HEMOGLOBIN / LEUKOCYTE COUNT / LYMPHOCYTE / MEAN CORPUSCULAR HEMOGLOBIN / MEAN CORPUSCULAR HEMOGLOBIN CONCENTRATION / MEAN CORPUSCULAR VOLUME / MONOCYTE / NEUTROPHIL / NUCLEATED RED BLOOD CELLS / PLATELET COUNT: tissue Blood; for ALANINE AMINOTRANSFERASE / ALBUMIN / ALKALINE PHOSPHATASE / ASPARTATE AMINOTRANSFERASE / BLOOD UREA NITROGEN / CARBON DIOXIDE / CHLORIDE / CHOLESTEROL / CREATINE PHOSPHOKINASE / CREATININE / GLUCOSE / LACTATE DEHYDROGENASE / LIPASE / PHOSPHORUS / POTASSIUM / SODIUM / TOTAL BILIRUBIN / TOTAL PROTEIN / URIC ACID: tissue Plasma
[1] = 0 mg/kg, 72 h, dose level Control, time 3 day
[2] = 0 mg/kg, 120 h, dose level Control, time 5 day
[3] = 3 mg/kg, 72 h, dose level Low, time 3 day

CN(C)CC[C@@H](c1ccc(Cl)cc1)c1ccccn1 [DEXCHLORPHENIRAMINE]
ABSOLUTE BASOPHIL [1]: 0 CELLS/uL | ABSOLUTE EOSINOPHIL [1]: 58.83 CELLS/uL | ABSOLUTE LYMPHOCYTE [1]: 11823.5 CELLS/uL | ABSOLUTE MONOCYTE [1]: 169 CELLS/uL | ABSOLUTE SEGMENTED NEUTROPHIL [1]: 815.33 CELLS/uL | BASOPHIL [1]: 0% | EOSINOPHIL [1]: 0.5% | ERYTHROCYTE COUNT [1]: 5.52 x10E6/uL | HEMATOCRIT [1]: 35.77% | HEMOGLOBIN [1]: 14.28 G/DL | LEUKOCYTE COUNT [1]: 12.87 x10E3/uL | LYMPHOCYTE [1]: 91.67% | MEAN CORPUSCULAR HEMOGLOBIN [1]: 25.92 pg | MEAN CORPUSCULAR HEMOGLOBIN CONCENTRATION [1]: 39.95 G/DL | MEAN CORPUSCULAR VOLUME [1]: 64.85 fL | MONOCYTE [1]: 1.33% | NEUTROPHIL [1]: 6.5% | NUCLEATED RED BLOOD CELLS [1]: 0 /100WBC | PLATELET COUNT [1]: 1246.17 x10E3/uL | ALANINE AMINOTRANSFERASE [1]: 66 u/L | ALBUMIN [1]: 4.25 G/DL | ALKALINE PHOSPHATASE [1]: 416 u/L | ASPARTATE AMINOTRANSFERASE [1]: 106.17 u/L | BLOOD UREA NITROGEN [1]: 12.67 mg/dL | CARBON DIOXIDE [1]: 31.83 mmol/L | CHLORIDE [1]: 102.5 MEQ/L | CHOLESTEROL [1]: 69 mg/dL | CREATINE PHOSPHOKINASE [1]: 601.83 u/L | CREATININE [1]: 0.18 mg/dL | GLUCOSE [1]: 154.5 mg/dL | LACTATE DEHYDROGENASE [1]: 301.83 u/L | LIPASE [1]: 11.17 u/L | PHOSPHORUS [1]: 12.08 mg/dL | POTASSIUM [1]: 6.12 MEQ/L | SODIUM [1]: 145.2 MEQ/L | TOTAL BILIRUBIN [1]: 0.17 mg/dL | TOTAL PROTEIN [1]: 6.1 G/DL | URIC ACID [1]: 1.57 mg/dL | ABSOLUTE BASOPHIL [2]: 0 CELLS/uL | ABSOLUTE EOSINOPHIL [2]: 19.33 CELLS/uL | ABSOLUTE LYMPHOCYTE [2]: 12577.83 CELLS/uL | ABSOLUTE MONOCYTE [2]: 106.33 CELLS/uL | ABSOLUTE SEGMENTED NEUTROPHIL [2]: 896.5 CELLS/uL | BASOPHIL [2]: 0% | EOSINOPHIL [2]: 0.17% | ERYTHROCYTE COUNT [2]: 5.84 x10E6/uL | HEMATOCRIT [2]: 36.88% | HEMOGLOBIN [2]: 14.48 G/DL | LEUKOCYTE COUNT [2]: 13.6 x10E3/uL | LYMPHOCYTE [2]: 92.17% | MEAN CORPUSCULAR HEMOGLOBIN [2]: 24.85 pg | MEAN CORPUSCULAR HEMOGLOBIN CONCENTRATION [2]: 39.3 G/DL | MEAN CORPUSCULAR VOLUME [2]: 63.23 fL | MONOCYTE [2]: 0.83% | NEUTROPHIL [2]: 6.83% | NUCLEATED RED BLOOD CELLS [2]: 0 /100WBC | PLATELET COUNT [2]: 1223.5 x10E3/uL | ALANINE AMINOTRANSFERASE [2]: 55.33 u/L | ALBUMIN [2]: 4.08 G/DL | ALKALINE PHOSPHATASE [2]: 355.5 u/L | ASPARTATE AMINOTRANSFERASE [2]: 87.67 u/L | BLOOD UREA NITROGEN [2]: 15.33 mg/dL | CARBON DIOXIDE [2]: 33.83 mmol/L | CHLORIDE [2]: 99.67 MEQ/L | CHOLESTEROL [2]: 72.17 mg/dL | CREATINE PHOSPHOKINASE [2]: 268.33 u/L | CREATININE [2]: 0.15 mg/dL | GLUCOSE [2]: 152.5 mg/dL | LACTATE DEHYDROGENASE [2]: 212.67 u/L | LIPASE [2]: 10.83 u/L | PHOSPHORUS [2]: 11.65 mg/dL | POTASSIUM [2]: 6.73 MEQ/L | SODIUM [2]: 142.43 MEQ/L | TOTAL BILIRUBIN [2]: 0.23 mg/dL | TOTAL PROTEIN [2]: 6.07 G/DL | URIC ACID [2]: 1.7 mg/dL | ABSOLUTE BASOPHIL [3]: 0 CELLS/uL | ABSOLUTE EOSINOPHIL [3]: 76 CELLS/uL | ABSOLUTE LYMPHOCYTE [3]: 10621.67 CELLS/uL | ABSOLUTE MONOCYTE [3]: 75 CELLS/uL | ABSOLUTE SEGMENTED NEUTROPHIL [3]: 960.67 CELLS/uL | BASOPHIL [3]: 0% | EOSINOPHIL [3]: 0.67% | ERYTHROCYTE COUNT [3]: 5.43 x10E6/uL | HEMATOCRIT [3]: 35.8% | HEMOGLOBIN [3]: 14.27 G/DL | LEUKOCYTE COUNT [3]: 11.73 x10E3/uL | LYMPHOCYTE [3]: 90.33% | MEAN CORPUSCULAR HEMOGLOBIN [3]: 26.27 pg | MEAN CORPUSCULAR HEMOGLOBIN CONCENTRATION [3]: 39.83 G/DL | MEAN CORPUSCULAR VOLUME [3]: 65.9 fL | MONOCYTE [3]: 0.67% | NEUTROPHIL [3]: 8.33% | NUCLEATED RED BLOOD CELLS [3]: 0 /100WBC | PLATELET COUNT [3]: 1343.33 x10E3/uL | ALANINE AMINOTRANSFERASE [3]: 45.67 u/L | ALBUMIN [3]: 4.17 G/DL | ALKALINE PHOSPHATASE [3]: 363.67 u/L | ASPARTATE AMINOTRANSFERASE [3]: 81 u/L | BLOOD UREA NITROGEN [3]: 12.67 mg/dL | CARBON DIOXIDE [3]: 31.67 mmol/L | CHLORIDE [3]: 102.33 MEQ/L | CHOLESTEROL [3]: 64 mg/dL | CREATINE PHOSPHOKINASE [3]: 265.33 u/L | CREATININE [3]: 0.26 mg/dL | GLUCOSE [3]: 152.33 mg/dL | LACTATE DEHYDROGENASE [3]: 198 u/L | LIPASE [3]: 13.33 u/L | PHOSPHORUS [3]: 13.23 mg/dL | POTASSIUM [3]: 6.5 MEQ/L | SODIUM [3]: 145.03 MEQ/L | TOTAL BILIRUBIN [3]: 0.13 mg/dL | TOTAL PROTEIN [3]: 5.87 G/DL | URIC ACID [3]: 1.57 mg/dL
